Source: patent publication US6737383B1, “Herbicidal oxadiazolidines” (priority 1999, dated 2004)

What was measured:
sugar beet = test: Test B pre/postemergence sugar beet; format: in vivo, Beta vulgaris
Method in brief: (§1)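 Herbicidal effect was estimated by eye on a ten-point control scale after plants spent twelve to sixteen days in a greenhouse following soil or foliar treatment. Foliar sprays targeted plants at one to four leaves; all doses were formulated in a non-phytotoxic solvent with surfactant.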

blackgrass = test: Test B pre/postemergence blackgrass; format: in vivo, Alopecurus myosuroides
Method in brief: as §1

crabgrass = test: Test B pre/postemergence crabgrass; format: in vivo, Digitaria sanguinalis
Method in brief: as §1

soybean = test: Test B pre/postemergence soybean; format: in vivo, Glycine max
Method in brief: as §1

surinam grass = test: Test B pre/postemergence surinam grass; format: in vivo, Brachiaria decumbens
Method in brief: as §1

bedstraw = test: Test B pre/postemergence bedstraw; format: in vivo, Galium aparine
Method in brief: as §1

giant foxtail = test: Test B pre/postemergence giant foxtail; format: in vivo, Setaria faberii
Method in brief: as §1

velvetleaf = test: Test B pre/postemergence velvetleaf; format: in vivo, Abutilon theophrasti
Method in brief: as §1

wheat = test: Test B pre/postemergence wheat; format: in vivo, Triticum aestivum
Method in brief: as §1

wild oat = test: Test B pre/postemergence wild oat; format: in vivo, Avena fatua
Method in brief: as §1

corn = test: Test B pre/postemergence corn; format: in vivo, Zea mays
Method in brief: as §1

rape = test: Test B pre/postemergence rape; format: in vivo, Brassica napus
Method in brief: as §1

purple nutsedge = test: Test B pre/postemergence purple nutsedge; format: in vivo, Cyperus rotundus
Method in brief: as §1

morningglory = test: Test B pre/postemergence morningglory; format: in vivo, Ipomoea hederacea
Method in brief: as §1

cocklebur = test: Test B pre/postemergence cocklebur; format: in vivo, Xanthium strumarium
Method in brief: as §1

pigweed = test: Test B pre/postemergence pigweed; format: in vivo, Amaranthus retroflexus
Method in brief: as §1

[1] = Postemergence, Rate 62 g/ha, scale 0 to 10, 0 is no effect, 10 is complete control
[2] = Preemergence, Rate 125 g/ha, scale of 0 to 10 where 0 is no effect and 10 is complete control
[3] = Preemergence, Rate 250 g/ha, scale 0 (no effect) to 10 (complete control)
[4] = Rate 62 g/ha, Preemergence, scale 0 to 10
[5] = Rate 250 g/ha, Postemergence, scale 0 to 10, 0 is no effect, 10 is complete control
[6] = Rate 500 g/ha, Postemergence, scale 0 to 10, 0 is no effect, 10 is complete control
[7] = Rate 500 g/ha, Preemergence, scale 0 to 10 (0 no effect, 10 complete control)
[8] = Postemergence, Rate 125 g/ha, scale of 0 to 10 where 0 is no effect and 10 is complete control

Cc1nc(C(C)n2c(=O)on(C(=O)N(c3ccccc3)C(C)C)c2=O)sc1C (stereo not shown) [Compound 756]
9: Plant response rating, Crabgrass (crabgrass; [2]) | Crabgrass plant response rating (crabgrass; [3]) | Crabgrass plant response rating (crabgrass; [7]) | Plant response rating, Giant foxtail (giant foxtail; [2]) | Giant foxtail plant response rating (giant foxtail; [3]) | Giant foxtail plant response rating (giant foxtail; [7])
10: Morningglory plant response rating (morningglory; [5]) | Morningglory plant response rating (morningglory; [6])
3: Blackgrass plant response rating (blackgrass; [6]) | Crabgrass plant response rating (crabgrass; [6]) | B. signalgrass plant response rating (surinam grass; [7]) | Bedstraw plant response rating (bedstraw; [5]) | Rape plant response rating (rape; [6]) | Redroot pigweed plant response rating (pigweed; [6])
4: Blackgrass plant response rating (blackgrass; [3]) | Crabgrass plant response rating (crabgrass; [4]) | Plant response rating, Morningglory (morningglory; [1])
0: Plant response rating, Sugarbeets (sugar beet; [1]) | Plant response rating, Sugarbeets (sugar beet; [2]) | Sugarbeets plant response rating (sugar beet; [3]) | Sugarbeets plant response rating (sugar beet; [4]) | Sugarbeets plant response rating (sugar beet; [5]) | Sugarbeets plant response rating (sugar beet; [6]) | Sugarbeets plant response rating (sugar beet; [7]) | Plant response rating, Blackgrass (blackgrass; [1]) | Blackgrass plant response rating (blackgrass; [8]) | Blackgrass plant response rating (blackgrass; [4]) | Blackgrass plant response rating (blackgrass; [5]) | Plant response rating, Crabgrass (crabgrass; [1]) | Crabgrass plant response rating (crabgrass; [8]) | Crabgrass plant response rating (crabgrass; [5]) | Plant response rating, Soybean (soybean; [2]) | Soybean plant response rating (soybean; [3]) | Soybean plant response rating (soybean; [4]) | Soybean plant response rating (soybean; [7]) | Plant response rating, B. signalgrass (surinam grass; [1]) | B. signalgrass plant response rating (surinam grass; [8]) | B. signalgrass plant response rating (surinam grass; Preemergence, Rate 62 g/ha, scale of 0 to 10 where 0 is no effect and 10 is complete control) | Plant response rating, B. signalgrass (surinam grass; [2]) | B. signalgrass plant response rating (surinam grass; [3]) | B. signalgrass plant response rating (surinam grass; [5]) | Plant response rating, Bedstraw (bedstraw; [1]) | Bedstraw plant response rating (bedstraw; [8]) | Plant response rating, Bedstraw (bedstraw; [2]) | Bedstraw plant response rating (bedstraw; [3]) | Bedstraw plant response rating (bedstraw; [4]) | Bedstraw plant response rating (bedstraw; [7]) | Plant response rating, Giant foxtail (giant foxtail; [1]) | Giant foxtail plant response rating (giant foxtail; [8]) | Giant foxtail plant response rating (giant foxtail; [5]) | Giant foxtail plant response rating (giant foxtail; [6]) | Plant response rating, Velvetleaf (velvetleaf; [1]) | Plant response rating, Velvetleaf (velvetleaf; [2]) | Velvetleaf plant response rating (velvetleaf; [3]) | Velvetleaf plant response rating (velvetleaf; [4]) | Velvetleaf plant response rating (velvetleaf; [5]) | Velvetleaf plant response rating (velvetleaf; [6]) | Velvetleaf plant response rating (velvetleaf; [7]) | Plant response rating, Wheat (wheat; [1]) | Plant response rating, Wheat (wheat; [2]) | Wheat plant response rating (wheat; [3]) | Wheat plant response rating (wheat; [4]) | Wheat plant response rating (wheat; [5]) | Wheat plant response rating (wheat; [6]) | Wheat plant response rating (wheat; [7]) | Plant response rating, Wild oats (wild oat; [1]) | Plant response rating, Wild oats (wild oat; [2]) | Wild oats plant response rating (wild oat; [3]) | Wild oats plant response rating (wild oat; [4]) | Wild oats plant response rating (wild oat; [5]) | Wild oats plant response rating (wild oat; [6]) | Wild oats plant response rating (wild oat; [7]) | Plant response rating, Corn (corn; [1]) | Corn plant response rating (corn; [8]) | Plant response rating, Corn (corn; [2]) | Corn plant response rating (corn; [3]) | Corn plant response rating (corn; [4]) | Corn plant response rating (corn; [5]) | Corn plant response rating (corn; [6]) | Corn plant response rating (corn; [7]) | Plant response rating, Rape (rape; [1]) | Rape plant response rating (rape; [8]) | Plant response rating, Rape (rape; [2]) | Rape plant response rating (rape; [3]) | Rape plant response rating (rape; [4]) | Rape plant response rating (rape; [5]) | Rape plant response rating (rape; [7]) | Plant response rating, Nutsedge (purple nutsedge; [1]) | Nutsedge plant response rating (purple nutsedge; [8]) | Plant response rating, Nutsedge (purple nutsedge; [2]) | Nutsedge plant response rating (purple nutsedge; [3]) | Nutsedge plant response rating (purple nutsedge; [5]) | Nutsedge plant response rating (purple nutsedge; [6]) | Plant response rating, Morningglory (morningglory; [2]) | Morningglory plant response rating (morningglory; [3]) | Morningglory plant response rating (morningglory; [4]) | Morningglory plant response rating (morningglory; [7]) | Plant response rating, Cocklebur (cocklebur; [1]) | Cocklebur plant response rating (cocklebur; [8]) | Plant response rating, Cocklebur (cocklebur; [2]) | Cocklebur plant response rating (cocklebur; [3]) | Cocklebur plant response rating (cocklebur; [4]) | Cocklebur plant response rating (cocklebur; [5]) | Cocklebur plant response rating (cocklebur; [6]) | Cocklebur plant response rating (cocklebur; [7]) | Plant response rating, Redroot pigweed (pigweed; [1]) | Redroot pigweed plant response rating (pigweed; [8]) | Plant response rating, Redroot pigweed (pigweed; [2]) | Redroot pigweed plant response rating (pigweed; [3]) | Redroot pigweed plant response rating (pigweed; [4]) | Redroot pigweed plant response rating (pigweed; [5]) | Redroot pigweed plant response rating (pigweed; [7])
2: Plant response rating, Blackgrass (blackgrass; [2]) | Plant response rating, Soybean (soybean; [1]) | Soybean plant response rating (soybean; [5]) | Soybean plant response rating (soybean; [6]) | B. signalgrass plant response rating (surinam grass; [6])
7: Blackgrass plant response rating (blackgrass; [7]) | Giant foxtail plant response rating (giant foxtail; [4]) | Nutsedge plant response rating (purple nutsedge; [7]) | Morningglory plant response rating (morningglory; [8])
